Assay results as given in ChEMBL document CHEMBL3526110, “Preclinical evaluation of the metabolism and disposition of RRx-001, a novel investigative anticancer agent” (Drug Metab Dispos, 2012).

How the values were obtained:
[1] = Ratio of drug level in human blood to human plasma at 1 uM after 30 mins; assay type: ADME; conditions: whole blood
Nucleic Acid = experiment: Ratio of drug level in blood to plasma in Wistar Hanover rat at 10 mg/kg, iv administered as single dose after 168 hrs; assay type: ADME, organism-based; design: dose 10 mg/kg, route intravenous; conditions: in vivo
[2] = Drug excretion in Wistar Hanover rat feces at 10 mg/kg, iv administered as single dose measured on day 7; assay type: ADME, organism-based; design: dose 10 mg/kg, route intravenous; conditions: faeces, read-out: Drug excretion
[3] = Binding affinity to monkey hemoglobin assessed as protein bound compound level at 1 uM; assay type: ADME, Macaca mulatta; conditions: rhesus monkey, read-out: PB (converted)
Blood [4] = experiment: Drug level in Wistar Hanover rat blood at 10 mg/kg, iv administered as single dose after 168 hrs relative to total radioactivity; assay type: ADME, organism-based; design: dose 10 mg/kg, route intravenous; conditions: in vivo
[5] = Half life in Wistar Hanover rat plasma at 10 mg/kg, iv administered as single dose; assay type: ADME, organism-based; design: dose 10 mg/kg, route intravenous
Blood [6] = experiment: Drug metabolism in human whole blood assessed as (R)-2-amino-3-((2-(3,3-dinitroazetidin-1-yl)-2-oxoethyl)thio)propanoic acid] formation at 20 uM by LC-MS/MS method; assay type: ADME, tissue-based
Blood [7] = experiment: Retention time in rat whole blood in presence of 0.1% formic acid in acetonitrile at 20 uM by LC-MS/MS method; assay type: ADME, tissue-based
[8] = Half life in Wistar Hanover rat blood at 10 mg/kg, iv administered as single dose; assay type: ADME, organism-based; design: dose 10 mg/kg, route intravenous; conditions: whole blood
[9] = Ratio of drug level in blood to plasma in Wistar Hanover rat at 10 mg/kg, iv administered as single dose after 0.083 hrs; assay type: ADME, organism-based; design: dose 10 mg/kg, route intravenous; conditions: whole blood and plasma
[10] = Binding affinity to dog hemoglobin assessed as protein bound compound level at 1 uM; assay type: ADME, Canis lupus familiaris; conditions: read-out: PB (converted)
[11] = Volume of distribution in Wistar Hanover rat plasma at 10 mg/kg, iv administered as single dose; assay type: ADME, organism-based; design: dose 10 mg/kg, route intravenous
[12] = Volume of distribution in Wistar Hanover rat blood at 10 mg/kg, iv administered as single dose; assay type: ADME, organism-based; design: dose 10 mg/kg, route intravenous; conditions: whole blood
[13] = Stability in pH 7.0 buffer; assay type: physicochemical
Blood [14] = experiment: Drug metabolism in rat whole blood assessed as [(S)-2-amino-5-(((R)-1-((carboxymethyl)amino)-1-oxo-3-((2-oxo-2-(3-oxoazetidin-1-yl)ethyl)thio)propan-2-yl)amino)-5-oxopentanoic acid] formation at 20 uM by LC-MS/MS method; assay type: ADME, tissue-based
[15] = Ratio of drug level in monkey blood to monkey plasma at 1 uM after 30 mins; assay type: ADME, Macaca mulatta; conditions: rhesus monkey, whole blood
Blood [16] = experiment: Retention time in human whole blood at 20 uM by LC-MS/MS method; assay type: ADME, tissue-based
[17] = Drug level in Wistar Hanover rat bile at 10 mg/kg, iv administered as single dose after 24 hrs; assay type: ADME, organism-based; design: dose 10 mg/kg, route intravenous; conditions: in vivo
Blood [18] = experiment: Drug metabolism in rat whole blood assessed as [(R)-2-(2-amino-3-((2-(3,3-dinitroazetidin-1-yl)-2-oxoethyl)thio)propanamido)acetic acid] formation at 20 uM by LC-MS/MS method; assay type: ADME, tissue-based
Blood [19] = experiment: Drug metabolism in rat whole blood assessed as [(S)-2-amino-5-(((R)-1-((carboxymethyl)amino)-3-((2-(3-nitroazetidin-1-yl)-2-oxoethyl)thio)-1-oxopropan-2-yl)amino)-5-oxopentanoic acid] formation at 20 uM by LC-MS/MS method; assay type: ADME, tissue-based
Blood [20] = experiment: Retention time in rat whole blood at 20 uM by LC-MS/MS method; assay type: ADME, tissue-based
[21] = Ratio of drug level in rat blood to rat plasma at 1 uM after 30 mins; assay type: ADME, cell-free; conditions: whole blood
[22] = Stability in water; assay type: physicochemical; conditions: buffer
Blood [23] = experiment: Drug metabolism in rat whole blood assessed as [(R)-2-amino-3-((2-(3-nitroazetidin-1-yl)-2-oxoethyl)thio)propanoic acid] formation at 20 uM by LC-MS/MS method; assay type: ADME, tissue-based
Blood [24] = experiment: Drug metabolism in rat whole blood assessed as [(S)-2-amino-5-(((R)-1-((carboxymethyl)amino)-3-((2-(3-(hydroxyimino)azetidin-1-yl)-2-oxoethyl)thio)-1-oxopropan-2-yl)amino)-5-oxopentanoic acid] formation at 20 uM by LC-MS/MS method; assay type: ADME, tissue-based
[25] = Drug excretion in Wistar Hanover rat feces at 10 mg/kg, iv administered as single dose measured on day 1; assay type: ADME, organism-based; design: dose 10 mg/kg, route intravenous; conditions: faeces, read-out: Drug excretion
Blood [26] = experiment: Drug metabolism in rat whole blood assessed as [(S)-2-amino-5-(((R)-1-((carboxymethyl)amino)-3-((2-(3,3-dinitroazetidin-1-yl)-2-oxoethyl)thio)-1-oxopropan-2-yl)amino)-5-oxopentanoic acid] formation at 20 uM by LC-MS/MS method; assay type: ADME, tissue-based
[27] = Binding affinity to human hemoglobin assessed as protein bound compound level at 20 uM; assay type: ADME; conditions: read-out: PB (converted)
Blood [28] = experiment: Drug metabolism in human whole blood assessed as [(S)-2-amino-5-(((R)-1-((carboxymethyl)amino)-3-((2-(3-(hydroxyimino)azetidin-1-yl)-2-oxoethyl)thio)-1-oxopropan-2-yl)amino)-5-oxopentanoic acid] formation at 20 uM by LC-MS/MS method; assay type: ADME, tissue-based
Plasma [29] = experiment: AUC (0 to infinity) in Wistar Hanover rat plasma at 10 mg/kg, iv administered as single dose; assay type: ADME, organism-based; design: time infinity, dose 10 mg/kg, route intravenous; conditions: in vivo
Blood [30] = experiment: Drug metabolism in human whole blood assessed as [(R)-2-amino-3-((2-(3-nitroazetidin-1-yl)-2-oxoethyl)thio)propanoic acid] formation at 20 uM by LC-MS/MS method; assay type: ADME, tissue-based
Blood [31] = experiment: Drug level in Wistar Hanover rat blood at 10 mg/kg, iv administered as single dose after 168 hrs; assay type: ADME, organism-based; design: dose 10 mg/kg, route intravenous; conditions: in vivo
[32] = Ratio of drug level in dog blood to dog plasma at 1 uM after 30 mins; assay type: ADME, Canis lupus familiaris; conditions: whole blood
Blood [33] = experiment: Retention time in human whole blood in presence of 0.1% formic acid in acetonitrile at 20 uM by LC-MS/MS method; assay type: ADME, tissue-based
[34] = Ratio of drug level in rat blood to rat plasma at 20 uM after 30 mins; assay type: ADME, cell-free; conditions: whole blood
Blood [35] = experiment: AUC (0 to t) in Wistar Hanover rat blood at 10 mg/kg, iv administered as single dose; assay type: ADME, organism-based; design: dose 10 mg/kg, route intravenous; conditions: in vivo
Stomach = experiment: Drug level in Wistar Hanover rat stomach at 10 mg/kg, iv administered as single dose after 24 hrs; assay type: ADME, organism-based; design: dose 10 mg/kg, route intravenous; conditions: in vivo
[36] = Drug excretion in Wistar Hanover rat urine at 10 mg/kg, iv administered as single dose after 0 to 8 hrs; assay type: ADME, organism-based; design: dose 10 mg/kg, route intravenous; conditions: read-out: Drug excretion
[37] = Binding affinity to rat hemoglobin assessed as protein bound compound level at 1 uM; assay type: ADME; conditions: read-out: PB (converted)
[38] = Ratio of drug level in dog blood to dog plasma at 20 uM after 30 mins; assay type: ADME, Canis lupus familiaris; conditions: whole blood
Blood [39] = experiment: Drug metabolism in human whole blood assessed as [(S)-2-amino-5-(((R)-1-((carboxymethyl)amino)-3-((2-(3,3-dinitroazetidin-1-yl)-2-oxoethyl)thio)-1-oxopropan-2-yl)amino)-5-oxopentanoic acid] formation at 20 uM by LC-MS/MS method; assay type: ADME, tissue-based
Blood [40] = experiment: Drug level in Wistar Hanover rat blood at 10 mg/kg, iv administered as single dose after 24 hrs; assay type: ADME, organism-based; design: dose 10 mg/kg, route intravenous; conditions: in vivo
[41] = Binding affinity to human hemoglobin assessed as protein bound compound level at 1 uM; assay type: ADME; conditions: read-out: PB (converted)
Blood [42] = experiment: Drug metabolism in rat whole blood assessed as (R)-2-amino-3-((2-(3,3-dinitroazetidin-1-yl)-2-oxoethyl)thio)propanoic acid] formation at 20 uM by LC-MS/MS method; assay type: ADME, tissue-based
Blood [43] = experiment: Drug metabolism in human whole blood assessed as [(R)-2-(2-amino-3-((2-(3,3-dinitroazetidin-1-yl)-2-oxoethyl)thio)propanamido)acetic acid] formation at 20 uM by LC-MS/MS method; assay type: ADME, tissue-based
[44] = Drug excretion in Wistar Hanover rat urine at 10 mg/kg, iv administered as single dose after 168 hrs; assay type: ADME, organism-based; design: dose 10 mg/kg, route intravenous; conditions: read-out: Drug excretion
[45] = Ratio of drug level in human blood to human plasma at 20 uM after 30 mins; assay type: ADME; conditions: whole blood
[46] = Binding affinity to rat hemoglobin assessed as protein bound compound level at 20 uM; assay type: ADME; conditions: read-out: PB (converted)
Plasma [47] = experiment: AUC (0 to t) in Wistar Hanover rat plasma at 10 mg/kg, iv administered as single dose; assay type: ADME, organism-based; design: dose 10 mg/kg, route intravenous; conditions: in vivo
[48] = Ratio of drug level in monkey blood to monkey plasma at 20 uM after 30 mins; assay type: ADME, Macaca mulatta; conditions: rhesus monkey, whole blood
[49] = Binding affinity to monkey hemoglobin assessed as protein bound compound level at 20 uM; assay type: ADME, Macaca mulatta; conditions: rhesus monkey, read-out: PB (converted)
Blood [50] = experiment: Retention time in rat whole blood in presence of 0.1% formic acid in water at 20 uM by LC-MS/MS method; assay type: ADME, tissue-based
Blood [51] = experiment: Drug metabolism in human whole blood assessed as [(S)-2-amino-5-(((R)-1-((carboxymethyl)amino)-1-oxo-3-((2-oxo-2-(3-oxoazetidin-1-yl)ethyl)thio)propan-2-yl)amino)-5-oxopentanoic acid] formation at 20 uM by LC-MS/MS method; assay type: ADME, tissue-based
[52] = Drug excretion in Wistar Hanover rat feces at 10 mg/kg, iv administered as single dose measured on day 2; assay type: ADME, organism-based; design: dose 10 mg/kg, route intravenous; conditions: faeces, read-out: Drug excretion
Blood [53] = experiment: Drug metabolism in human whole blood assessed as [(S)-2-amino-5-(((R)-1-((carboxymethyl)amino)-3-((2-(3-nitroazetidin-1-yl)-2-oxoethyl)thio)-1-oxopropan-2-yl)amino)-5-oxopentanoic acid] formation at 20 uM by LC-MS/MS method; assay type: ADME, tissue-based
Blood [54] = experiment: Retention time in human whole blood in presence of 0.1% formic acid in water at 20 uM by LC-MS/MS method; assay type: ADME, tissue-based

In the case of `O=C(CBr)N1CC([N+](=O)[O-])([N+](=O)[O-])C1` [NIBROZETONE], the blood plasma ratio at 0.5 h, 1 µM [1] is reported as 1, the Ratio (Nucleic Acid) is reported as 222 and the dose excreted [2] is reported as 0.06%. The fraction unbound at 1 µM [3] was 0.902, the Drug uptake (Blood [4]) was 61.8% and the half-life [5] was 66.1 h. For the same molecule, the Drug metabolism (Blood [6]) was “metabolite_detected”, the Retention_time (Blood [7]) was 15.1 min and the half-life [8] was > 168 h. For the same molecule, the blood plasma ratio at 0.083 h [9] was 12.4, the fraction unbound at 1 µM [10] was 0.77 and the Vd [11] was 0.926 L/kg. For the same molecule, the Vd [12] was 0.084 L/kg, the Stability [13] was “Stable” and the Drug metabolism (Blood [14]) was “metabolite_detected”. For the same molecule, the blood plasma ratio at 0.5 h, 1 µM [15] was 0.82, the Retention_time (Blood [16]) was 15.4 min and the Drug uptake [17] was “Not Active”. The Drug metabolism (Blood [18]) was “metabolite_detected”, the Drug metabolism (Blood [19]) was “metabolite_detected” and the Retention_time (Blood [20]) was 15.4 min. The blood plasma ratio at 0.5 h, 1 µM [21] was 2.1, the Stability [22] was “Stable” and the Drug metabolism (Blood [23]) was “metabolite_detected”. The Drug metabolism (Blood [24]) was “metabolite_detected”, the dose excreted [25] was 1.5% and the Drug metabolism (Blood [26]) was “metabolite_detected”. The fraction unbound at 20 µM [27] was 0.78, the Drug metabolism (Blood [28]) was “metabolite_detected” and the AUC (Plasma [29]) was 200000 ngequiv.hr/g. The Drug metabolism (Blood [30]) was “metabolite_detected”, the Drug uptake (Blood [31]) was 69600 ngequiv/g and the blood plasma ratio at 0.5 h, 1 µM [32] was 0.83. The Retention_time (Blood [33]) was 15.1 min, the blood plasma ratio at 0.5 h, 20 µM [34] was 4 and the AUCt (Blood [35]) was 14900000 ngequiv.hr/g. The Drug uptake (Stomach) was “Not Active”, the dose excreted [36] was 26% and the fraction unbound at 1 µM [37] was 0.31. For the same molecule, the blood plasma ratio at 0.5 h, 20 µM [38] was 1.2, the Drug metabolism (Blood [39]) was “metabolite_detected” and the Drug uptake (Blood [40]) was 76500 ngequiv/g. The fraction unbound at 1 µM [41] was 0.71, the Drug metabolism (Blood [42]) was “metabolite_detected” and the Drug metabolism (Blood [43]) was “metabolite_detected”. For the same molecule, the dose excreted at 168 h [44] was 36.3%, the blood plasma ratio at 0.5 h, 20 µM [45] was 0.99 and the fraction unbound at 20 µM [46] was 0.21. The AUCt (Plasma [47]) was 160000 ngequiv.hr/g, the blood plasma ratio at 0.5 h, 20 µM [48] was 1.5 and the fraction unbound at 20 µM [49] was 0.8. For the same molecule, the Retention_time (Blood [50]) was 12.8 min, the Drug metabolism (Blood [51]) was “metabolite_detected” and the dose excreted [52] was 0.3%. The Drug metabolism (Blood [53]) was “metabolite_detected” and the Retention_time (Blood [54]) was 12.8 min.
